This passage reports remaining binding results from publication PMC7206119, “RIP1 inhibition blocks inflammatory diseases but not tumor growth or metastases” (Cell Death and Differentiation, 2019).

Among the targets are AURKA (Homo sapiens, UniProt O14965); CAMK1G (Homo sapiens, UniProt Q96NX5); EPHA4 (Homo sapiens, UniProt P54764); EPHA6 (Homo sapiens, UniProt Q9UF33); FES (Homo sapiens, UniProt P07332); FRK (Homo sapiens, UniProt P42685); INSRR (Homo sapiens, UniProt P14616); PAK3 (Homo sapiens, UniProt O75914); PIK3CA(I800L) (Homo sapiens, UniProt P42336, I800L); PLK3 (Homo sapiens, UniProt Q9H4B4); PRKD1 (Homo sapiens, UniProt Q15139); RAF1 (Homo sapiens, UniProt P04049); SRPK2 (Homo sapiens, UniProt P78362); TGFBR2 (Homo sapiens, UniProt P37173); TRPM6 (Homo sapiens, UniProt Q9BX84); WNK1 (Homo sapiens, UniProt Q9H4A3).

Holding throughout (experiment): biochemical
What all share (parameters): DiscoverX kinase panel, active-site competition binding (KINOMEscan type), percent of control at one concentration
Conditions in all cases: competition binding, percent of control

Another test deals with T1, ARK5 (Homo sapiens, UniProt O60285).
T1 construct: gene NUAK1

For test [1], the target named is T2, JAK3(JH1domain-catalytic) (Homo sapiens, UniProt P52333).
T2 construct: JH1domain-catalytic
T2 sequence (P52333 whole entry): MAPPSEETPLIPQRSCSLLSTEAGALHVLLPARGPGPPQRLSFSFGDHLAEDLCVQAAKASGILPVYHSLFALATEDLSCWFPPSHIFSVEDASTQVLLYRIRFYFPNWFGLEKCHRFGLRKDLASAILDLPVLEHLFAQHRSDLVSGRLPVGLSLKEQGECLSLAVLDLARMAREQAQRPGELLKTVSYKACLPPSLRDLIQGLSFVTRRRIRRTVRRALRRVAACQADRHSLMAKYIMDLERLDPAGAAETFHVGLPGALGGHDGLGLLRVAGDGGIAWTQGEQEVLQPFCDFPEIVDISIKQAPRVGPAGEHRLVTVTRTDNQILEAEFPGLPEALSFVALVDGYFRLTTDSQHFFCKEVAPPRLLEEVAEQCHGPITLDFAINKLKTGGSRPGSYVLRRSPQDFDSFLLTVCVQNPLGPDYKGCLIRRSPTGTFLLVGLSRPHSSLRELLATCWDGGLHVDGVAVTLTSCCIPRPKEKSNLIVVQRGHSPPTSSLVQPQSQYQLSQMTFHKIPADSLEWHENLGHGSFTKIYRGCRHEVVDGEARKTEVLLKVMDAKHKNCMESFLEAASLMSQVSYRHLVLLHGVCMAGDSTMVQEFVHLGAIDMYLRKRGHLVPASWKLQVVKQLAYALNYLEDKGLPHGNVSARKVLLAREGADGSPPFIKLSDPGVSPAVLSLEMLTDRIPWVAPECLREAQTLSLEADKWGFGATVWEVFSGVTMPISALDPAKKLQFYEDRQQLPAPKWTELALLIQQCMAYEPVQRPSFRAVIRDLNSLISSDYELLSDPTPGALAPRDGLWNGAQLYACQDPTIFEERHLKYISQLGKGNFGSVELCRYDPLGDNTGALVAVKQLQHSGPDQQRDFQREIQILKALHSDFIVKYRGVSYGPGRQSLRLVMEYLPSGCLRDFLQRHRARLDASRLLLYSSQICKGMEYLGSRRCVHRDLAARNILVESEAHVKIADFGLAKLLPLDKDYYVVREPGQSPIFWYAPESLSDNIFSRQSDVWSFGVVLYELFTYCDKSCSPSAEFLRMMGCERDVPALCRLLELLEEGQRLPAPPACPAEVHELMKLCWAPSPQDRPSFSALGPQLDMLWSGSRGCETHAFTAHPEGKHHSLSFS

Another test concerns the target T3, JNK3 (Homo sapiens, UniProt P53779).
T3 construct: gene MAPK10

In test [2] the target is T4, RSK1(Kin.Dom.2-C-terminal) (Homo sapiens, UniProt Q15418).
T4 construct: gene RPS6KA1; Kin.Dom.2-C-terminal
T4 sequence (Q15418 whole entry): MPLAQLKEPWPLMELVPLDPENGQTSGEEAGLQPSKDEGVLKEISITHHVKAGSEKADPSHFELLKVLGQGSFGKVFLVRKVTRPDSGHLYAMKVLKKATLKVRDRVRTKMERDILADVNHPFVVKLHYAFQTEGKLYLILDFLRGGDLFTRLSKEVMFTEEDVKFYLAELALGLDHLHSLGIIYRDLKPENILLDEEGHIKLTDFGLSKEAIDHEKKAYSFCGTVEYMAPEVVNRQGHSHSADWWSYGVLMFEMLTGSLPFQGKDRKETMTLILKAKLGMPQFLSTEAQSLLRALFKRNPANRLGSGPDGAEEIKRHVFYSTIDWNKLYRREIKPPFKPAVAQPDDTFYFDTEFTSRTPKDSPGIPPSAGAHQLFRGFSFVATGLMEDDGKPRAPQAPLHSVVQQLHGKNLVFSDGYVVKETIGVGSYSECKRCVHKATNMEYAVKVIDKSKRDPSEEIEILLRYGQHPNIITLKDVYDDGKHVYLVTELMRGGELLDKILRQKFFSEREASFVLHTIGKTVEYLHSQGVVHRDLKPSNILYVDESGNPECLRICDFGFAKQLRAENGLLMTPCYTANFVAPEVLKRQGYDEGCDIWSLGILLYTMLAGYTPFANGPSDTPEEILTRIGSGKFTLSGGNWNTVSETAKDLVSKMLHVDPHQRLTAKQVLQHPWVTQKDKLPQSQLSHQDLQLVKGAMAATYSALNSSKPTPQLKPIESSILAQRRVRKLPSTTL

The target in the next test is T5, VPS34 (Homo sapiens, UniProt Q8NEB9).
T5 construct: gene PIK3C3
T5 sequence (Q8NEB9 whole entry): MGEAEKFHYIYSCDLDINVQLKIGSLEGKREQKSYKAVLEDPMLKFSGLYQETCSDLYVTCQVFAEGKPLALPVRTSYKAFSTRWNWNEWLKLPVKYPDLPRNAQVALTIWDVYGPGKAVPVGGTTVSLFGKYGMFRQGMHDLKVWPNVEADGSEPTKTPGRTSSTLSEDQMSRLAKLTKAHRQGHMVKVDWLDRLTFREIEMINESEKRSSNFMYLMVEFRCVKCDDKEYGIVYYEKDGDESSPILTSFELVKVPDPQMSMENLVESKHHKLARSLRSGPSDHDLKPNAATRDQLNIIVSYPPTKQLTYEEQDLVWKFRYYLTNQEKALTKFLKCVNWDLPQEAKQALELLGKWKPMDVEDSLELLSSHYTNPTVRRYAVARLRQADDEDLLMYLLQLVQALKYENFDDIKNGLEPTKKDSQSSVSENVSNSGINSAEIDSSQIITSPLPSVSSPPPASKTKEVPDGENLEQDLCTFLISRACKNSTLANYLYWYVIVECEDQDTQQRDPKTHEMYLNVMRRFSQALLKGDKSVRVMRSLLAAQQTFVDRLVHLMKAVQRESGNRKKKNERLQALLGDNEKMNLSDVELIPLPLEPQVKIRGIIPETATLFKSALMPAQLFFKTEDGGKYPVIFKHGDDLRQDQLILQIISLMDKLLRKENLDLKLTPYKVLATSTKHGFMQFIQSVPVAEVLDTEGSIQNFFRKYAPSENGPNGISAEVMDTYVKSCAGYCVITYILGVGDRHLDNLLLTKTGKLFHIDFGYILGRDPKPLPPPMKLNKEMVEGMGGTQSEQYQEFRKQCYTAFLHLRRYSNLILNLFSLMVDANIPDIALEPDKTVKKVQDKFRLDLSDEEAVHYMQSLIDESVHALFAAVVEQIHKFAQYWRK

T3 sequence (P53779 whole entry): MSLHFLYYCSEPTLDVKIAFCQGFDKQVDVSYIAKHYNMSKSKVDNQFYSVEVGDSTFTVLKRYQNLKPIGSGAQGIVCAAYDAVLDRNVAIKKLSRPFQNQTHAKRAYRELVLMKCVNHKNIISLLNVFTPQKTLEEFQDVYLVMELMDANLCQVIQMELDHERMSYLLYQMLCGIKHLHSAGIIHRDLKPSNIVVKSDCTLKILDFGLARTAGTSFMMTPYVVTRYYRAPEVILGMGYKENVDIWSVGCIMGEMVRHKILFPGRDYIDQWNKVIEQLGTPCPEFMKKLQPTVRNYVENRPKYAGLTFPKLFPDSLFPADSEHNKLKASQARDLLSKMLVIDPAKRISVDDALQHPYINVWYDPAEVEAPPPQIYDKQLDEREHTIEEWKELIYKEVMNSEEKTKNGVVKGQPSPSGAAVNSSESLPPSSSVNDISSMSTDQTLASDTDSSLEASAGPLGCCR
FES, sequence (P07332 whole entry): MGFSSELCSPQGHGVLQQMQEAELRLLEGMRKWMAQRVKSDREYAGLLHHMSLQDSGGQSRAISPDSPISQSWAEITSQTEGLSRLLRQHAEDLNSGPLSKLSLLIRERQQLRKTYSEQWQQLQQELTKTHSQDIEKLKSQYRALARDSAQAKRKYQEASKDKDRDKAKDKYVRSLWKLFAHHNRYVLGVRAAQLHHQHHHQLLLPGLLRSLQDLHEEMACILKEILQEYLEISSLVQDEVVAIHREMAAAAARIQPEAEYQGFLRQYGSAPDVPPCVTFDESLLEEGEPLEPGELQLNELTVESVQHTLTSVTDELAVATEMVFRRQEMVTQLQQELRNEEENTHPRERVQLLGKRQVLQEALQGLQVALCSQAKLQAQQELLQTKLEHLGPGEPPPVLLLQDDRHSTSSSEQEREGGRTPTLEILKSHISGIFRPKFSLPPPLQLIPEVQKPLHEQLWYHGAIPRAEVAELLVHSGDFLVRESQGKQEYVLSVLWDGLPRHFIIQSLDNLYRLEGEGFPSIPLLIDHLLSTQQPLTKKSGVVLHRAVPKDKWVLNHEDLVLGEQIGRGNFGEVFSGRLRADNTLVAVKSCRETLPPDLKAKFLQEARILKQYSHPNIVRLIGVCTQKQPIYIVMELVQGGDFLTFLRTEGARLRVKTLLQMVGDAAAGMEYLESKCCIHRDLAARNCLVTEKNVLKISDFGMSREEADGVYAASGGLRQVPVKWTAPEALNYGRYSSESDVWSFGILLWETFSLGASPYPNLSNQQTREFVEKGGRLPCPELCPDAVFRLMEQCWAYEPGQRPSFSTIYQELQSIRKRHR
RAF1, sequence (P04049 whole entry): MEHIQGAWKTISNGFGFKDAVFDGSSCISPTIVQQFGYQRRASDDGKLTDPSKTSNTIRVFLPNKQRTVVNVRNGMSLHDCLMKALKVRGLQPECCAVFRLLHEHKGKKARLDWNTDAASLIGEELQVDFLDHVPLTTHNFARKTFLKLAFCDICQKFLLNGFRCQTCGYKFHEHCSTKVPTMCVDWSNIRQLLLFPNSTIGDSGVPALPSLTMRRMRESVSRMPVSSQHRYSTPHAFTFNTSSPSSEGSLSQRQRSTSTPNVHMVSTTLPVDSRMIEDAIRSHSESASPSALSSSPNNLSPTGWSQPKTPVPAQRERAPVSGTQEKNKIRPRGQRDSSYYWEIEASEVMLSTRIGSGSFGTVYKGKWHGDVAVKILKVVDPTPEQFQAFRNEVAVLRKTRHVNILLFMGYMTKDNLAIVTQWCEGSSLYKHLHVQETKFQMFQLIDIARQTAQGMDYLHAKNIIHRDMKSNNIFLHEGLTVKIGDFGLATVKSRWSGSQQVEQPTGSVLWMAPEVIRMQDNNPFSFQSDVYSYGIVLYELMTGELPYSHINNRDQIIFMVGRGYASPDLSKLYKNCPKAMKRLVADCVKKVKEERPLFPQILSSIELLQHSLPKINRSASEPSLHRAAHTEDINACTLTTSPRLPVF

In the case of `COc1cc2c(cn1)N(C)C(=O)[C@@H](NC(=O)c1nc3n(n1)[C@H](c1ccccc1)CC3)CC2` [GNE684, (S)-N-((S)-7-methoxy-1-methyl-2-oxo-2,3,4,5-tetrahydro-1H-pyrido[3,4-b]azepin-3-yl)-5-phenyl-6,7-dihydro-5H-pyrrolo[1,2-b][1,2,4]triazole-2-carboxamide], the remaining binding at 10 µM at ARK5 amounted to 94%; at AURKA, 96%; at CAMK1G it was 100%; on EPHA4, 94%; on EPHA6, 100%; at FES, 100%. In addition, the remaining binding at 10 µM was found to be 100% on FRK; 92% at INSRR; 97% in test [1]; 98% on JNK3; 99% on PAK3; 96% at PIK3CA(I800L). For the same compound, the remaining binding at 10 µM on PLK3 came out at 89%; on PRKD1, 100%; on RAF1, 77%; in [2] it was 100%; on SRPK2 it was 100%; on TGFBR2 it was 94%. The remaining binding at 10 µM amounted to 87% on TRPM6, 100% at VPS34 and 100% on WNK1.
